Consider ten molecules from patent US12343403B2, “Targeted ligand-payload based drug delivery for cell therapy” (Purdue Research Foundation, priority 2017, dated 2025).

Entries after “also recorded” stand apart in the source; their conditions may differ. A value given as a limit tells only on which side of the number the result lay.

In test [1] the test system is 4M5.3FR+ human T cells. Kind of test: Cell viability assay, 4M5.3FR+ human T cells. The class given is cell-based.
Test [2] deals with 4M5.3FR+ population in a mixed human T cell culture. The test can be described thus: Killing of 4M5.3FR+ population in a mixed human T cell culture. The class given is cell-based.
For test [3], the system named is FMC63+4M5.3FR+hT cell towards Raji cell. Kind of test: CAR T cell lysis effect, FMC63+4M5.3FR+ hT cell towards Raji cell. The test is classed as cell-based, human. Here is the method:
1×10^5 CAR T and certain number of Raji cell were co-incubated in 96 well plate, according to the E:T ratio, with or without the treatment drug. After 24 h, 100 ul supernatant were taken out for LDH assay. Lysis percentage were calculated as (treatment group-CAR T only)/(maximum lysis-CAR T only) %

For test [4], the target named is T1, FKBPFR3GS fusion receptor (Homo sapiens, UniProt P62942).
T1 construct: human FRa signal peptide (1-24 aa of human FRa) (N); expressed in transfected cells; host or cells: human T cells / Jurkat T cells, lentiviral transduction
T1 sequence (P62942 with tags, fused parts or gaps): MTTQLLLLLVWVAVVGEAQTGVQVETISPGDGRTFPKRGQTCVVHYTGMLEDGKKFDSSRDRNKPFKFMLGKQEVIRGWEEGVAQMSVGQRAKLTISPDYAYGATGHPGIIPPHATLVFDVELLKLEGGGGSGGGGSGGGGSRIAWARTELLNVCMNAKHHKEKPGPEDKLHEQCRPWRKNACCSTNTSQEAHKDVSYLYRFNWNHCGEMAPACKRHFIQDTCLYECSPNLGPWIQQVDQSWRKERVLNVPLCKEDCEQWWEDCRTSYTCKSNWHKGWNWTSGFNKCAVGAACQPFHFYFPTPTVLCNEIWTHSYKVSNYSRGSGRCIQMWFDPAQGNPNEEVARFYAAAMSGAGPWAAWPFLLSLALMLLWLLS
The test can be described thus: Binding assay of ligand-dye on FKBPFR3GS (FF3) fusion receptor stably expressed on human T cell, flow cytometry. As for the experimental part:
For binding assay, cells were incubated with ligand-dye alone or with ligand-dye and free ligands (100×, preincubated for 30 min) for 30 min, at 4 degree. Cells were washed 3 times after incubation, and re-suspended in 2% FBS PBS, 7-AAD were added to gate out the dead cells. […] FRET is visualized by the loss of intensity of FA-Rhodamine as its energy transferred to FA-OTL38 on the same or nearby receptor, detected by BD Fortessa flow cytometer. Results were analyzed using Flow Jo software.
For binding assay, cells were incubated with ligand-dye alone or with ligand-dye and free ligands (100×, preincubated for 30 min) for 30 min, at 4 degree. Cells were washed 3 times after incubation, and re-suspended in 2% FBS PBS, 7-AAD were added to gate out the dead cells. BD Fortessa flow cytometer were used. Results were analyzed using FlowJo software.

Test [5] addresses T2, FKBP51 (Homo sapiens, UniProt Q13451).
T2 sequence (Q13451 1-457): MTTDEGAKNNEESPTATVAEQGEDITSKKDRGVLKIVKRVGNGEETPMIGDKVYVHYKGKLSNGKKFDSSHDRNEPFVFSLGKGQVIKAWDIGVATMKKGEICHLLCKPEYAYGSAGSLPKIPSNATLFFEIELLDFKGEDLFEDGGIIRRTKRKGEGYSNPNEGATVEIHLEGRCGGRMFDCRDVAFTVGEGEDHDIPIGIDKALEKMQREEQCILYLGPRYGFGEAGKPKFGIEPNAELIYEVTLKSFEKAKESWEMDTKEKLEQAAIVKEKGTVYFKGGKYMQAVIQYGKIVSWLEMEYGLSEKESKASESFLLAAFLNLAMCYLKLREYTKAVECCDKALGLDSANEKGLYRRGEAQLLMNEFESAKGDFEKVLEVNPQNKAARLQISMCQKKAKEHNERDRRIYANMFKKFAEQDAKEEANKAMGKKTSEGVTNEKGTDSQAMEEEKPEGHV
Conditions: read-out: KD FK506; cited from earlier work.

The target in test [6] is T3, FKBPFR1GS fusion receptor (Homo sapiens, UniProt P62942).
T3 construct: human FRa signal peptide (1-24 aa of human FRa) (N); expressed in transfected cells; host or cells: Jurkat cells, lentiviral transduction
T3 sequence (P62942 with tags, fused parts or gaps): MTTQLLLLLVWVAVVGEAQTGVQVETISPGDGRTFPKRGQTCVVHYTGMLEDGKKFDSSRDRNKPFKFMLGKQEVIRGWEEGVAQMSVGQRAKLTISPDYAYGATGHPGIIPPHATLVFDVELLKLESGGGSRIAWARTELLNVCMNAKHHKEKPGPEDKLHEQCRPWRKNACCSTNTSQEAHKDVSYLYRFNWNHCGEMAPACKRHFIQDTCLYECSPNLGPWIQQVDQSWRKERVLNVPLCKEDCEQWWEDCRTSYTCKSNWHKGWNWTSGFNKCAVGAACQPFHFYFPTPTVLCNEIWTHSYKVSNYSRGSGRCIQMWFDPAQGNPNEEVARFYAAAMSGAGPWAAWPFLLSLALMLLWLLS
Kind of test: Interference/FRET binding assay in FKBPFR1GS (FF1) fusion receptor Jurkat cells. As for the experimental part:
Cells were washed 3 times after incubation, and re-suspended in 2% FBS PBS, 7-AAD were added to gate out the dead cells. […] Results were analyzed using Flow Jo software. […]

Test [7] has as its system FF3+ human T cell. Conditions: 100× preincubation with FA. Here is the method:
Cells were seeded to 96 well plate and incubated with different concentration of certain ligand-cytotoxic drug for 2 h, with or without 100× preincubation of the free ligand competition. After 2 h incubation, cells were washed by warm medium 3 times and replenished with fresh medium. After 72 h, cell number were tested by CellTiter-Glo® assay (G7570, Promega) or quantified by ligand-dye staining of receptor positive cell.

For test [8] the following is noted: scFv against FITC; cited from earlier work.

On to `COc1cc2cc(c1Cl)N(C)C(=O)C[C@H](OC(=O)[C@H](C)N(C)C(=O)CCC(C)(C)SSCCNC(=S)Nc1cccc3c1C(=O)OC31c3ccc(O)cc3Oc3cc(O)ccc31)C1(C)O[C@H]1[C@H](C)C1CC(O)(NC(=O)O1)[C@H](OC)/C=C\C=C(\C)C2` (stereo partly drawn) [FITC-DM4], for which the “killing of 4M5.3FR+ human T cells” value in test [1] (2 h incubation, read after 72 h) was “specifically kill”. Further, in test [2] (4M5.3FR+ cells, increasing concentration), the “killing of 4M5.3FR+ population in mixed human T cell culture” value was “specifically kill the 4M5.3FR+ population”. For the same molecule, in test [2] (4M5.3FR- cells, high concentration, bystander effect), the “killing of 4M5.3FR- cells in mixed human T cell culture” value is “killed also through released drugs and bystander effect at high concentration”. `Cc1nc(Nc2ncc(C(=O)Cc3c(C)cccc3Cl)s2)cc(N2CCN(CCOC(=O)OCCSSCCNC(=S)Nc3ccc4c(c3)C(=O)OC43c4ccc(O)cc4Oc4cc(O)ccc43)CC2)n1` [FITC-Dasatinib]: the “lysis effect of FMC63+4M5.3FR+ hT cell towards Raji cell” value in test [3] is on record as “decrease the lysis effect”.

Consider `CO[C@H]1C[C@@H](C)[C@@]2(O)O[C@H]1[C@H](OC)C[C@H](C)C/C(C)=C\[C@H](C/C=C/c1ccc(C(=O)NCCCOCCOCCOCCCNC(=O)c3ccc(-c4c5ccc(=[N+](C)C)cc-5oc5cc(N(C)C)ccc45)c(C(=O)O)c3)cc1)C(=O)C[C@H](O)[C@@H](C)[C@@H](/C(C)=C/[C@@H]1CC[C@@H](O)[C@H](OC)C1)CC(=O)C1CCCCN1C(=O)C2=O` (stereo partly drawn) [FK506-Rhodamine], for which the “binding of FK506-Rhodamine in the presence of FA” value in test [4] (FF3 (3GS linker) compared to FF1, 10 nM FA) is recorded as “preserves the binding”. For orientation: Kd means the equilibrium constant for the complex coming apart. For `C=CC[C@@H]1/C=C(\C)C[C@H](C)C[C@H](OC)[C@H]2O[C@@](O)(C(=O)C(=O)N3CCCC[C@H]3C(=O)O[C@H](/C(C)=C/[C@@H]3CC[C@@H](O)[C@H](OC)C3)[C@H](C)[C@@H](O)CC1=O)[C@H](C)C[C@@H]2OC` [FK506], in test [5], the dissociation constant (Kd) is approximately 104 nM. As for `Nc1nc(=O)c2nc(CNc3ccc(C(=O)N[C@@H](CCC(=O)O)C(=O)O)cc3)cnc2[nH]1` [Folate acid], the “concentration at which Folate acid totally abolishes FK506-Rhodamine binding” value in test [6] (FKBPFR1GS fusion protein) is 50 nM. In addition, the “concentration at which Folate acid blocks the binding of FK506-Rhodamine” value in test [6] (FKBPFR1GS fusion protein, lowest blocking concentration) was not below 10 pM. Further, the “competition of FA-Tubulysin killing effect by FA” value in test [7] is “blocks the effect”. Molecule `COc1ccc(CCC(OC(=O)C2CCCCN2C(=O)C(=O)C(C)(C)C)c2cccc(NC(=O)CCC(=O)NCCOCCOCCOCCNC(=S)Nc3ccc(-c4c5ccc(=O)cc-5oc5cc(O)ccc45)c(C(=O)O)c3)c2)cc1OC` (stereo not drawn) [SLF-FITC] had a Kd in test [4] (FKBPFR3GS fusion receptor stably expressed on human T cell, 30 min, 4 degree) of 62 nM. Turning to `CCC(C)(C)C(=O)C(=O)N1CCCC[C@H]1C(=O)O[C@H](CCc1ccc(OC)c(OC)c1)c1cccc(OCC(=O)O)c1` [SLF], the “times lower binding affinity to FKBPFR fusion receptor compared to parent ligand FK506” value in test [4] (SLF vs FK506) is recorded as 10 times. In addition, the “competition of SLF-FITC binding by free SLF” value in test [4] (free SLF 100×, preincubation) is recorded as “blocks SLF-FITC binding; also recorded: blocks this binding”. Turning to FITC sodium, in test [1] (100× preincubation), the “competition of receptor mediated killing effect by free FITC sodium” value is listed as “blocks the receptor mediated killing effect”. In the case of OTL38, the “FRET: FK506-Rhodamine intensity after binding to OTL38” value in test [6] (FKBPFR1GS jurkat cell, FK506-Rhodamine donor, OTL38 acceptor) is on record as “decreased FK506-Rhodamine intensity”.

B1: 4M5.3: scFv against FITC, SEQ ID NO:19 (protein)
scFv: DVVMTQTPLSLPVSLGDQASISCRSSQSLVHSNGNTYLRWYLQKPGQSPKVLIYKVSNRVSGVPDRFSGSGSGTDFTLKINRVEAEDLGVYFCSQSTHVPWTFGGGTKLEIKSSADDAKKDAAKKDDAKKDDAKKDGGVKLDETGGGLVQPGGAMKLSCVTSGFTFGHYWMNWVRQSPEKGLEWVAQFRNKPYNYETYYSDSVKGRFTISRDDSKSSVYLQMNNLRVEDTGIYYCTGASYGMEYLGQGTSVTVSS
modifications: A synthetic scFv against FITC 4M5.3(Kd = 200pM)
With B1, the Kd in test [8] was 0.2 nM.
